Experimental data taken from the NIST ThermoML archive (doi:10.1021/je5001507).

What was measured:
[1] = for mass density / electrical conductivity / viscosity: 101.33 kPa, Liquid; for mass density: Vibrating tube method; for surface tension liquid-gas: plate method; for electrical conductivity: Alternating current cell with electrodes
[2] = refractive index (Na D-line) (dimensionless); conditions: 101.33 kPa, Liquid, Standard Abbe refractometry

CC(C)C[NH2+]CCCS(=O)(=O)O.O=S(=O)([O-])O [N-isobutyl-3-sulfopropan-1-aminium hydrogen sulfate]
Conditions | electrical conductivity, [1] [S/m] | mass density, [1] [kg/m3] | refractive index, [2] | surface tension liquid-gas, [1] [mN/m] | viscosity, [1] [mPa·s]
293.15 K | – | 1387.92 | 1.50559 | – | –
298.15 K | 0.00856 | – | 1.50436 | 52.18 | –
303.15 K | 0.0145 | 1383.65 | 1.50314 | 51.64 | –
308.15 K | 0.0235 | – | 1.50205 | 51.14 | 14383
313.15 K | 0.0367 | 1377.6 | 1.5008 | 50.69 | 9083
318.15 K | 0.0526 | – | 1.49974 | 50.15 | 5533
323.15 K | 0.0713 | 1371.59 | 1.49851 | 49.58 | 3833
328.15 K | 0.104 | – | 1.49756 | 48.98 | 2867
333.15 K | 0.14 | 1365.64 | 1.4963 | – | 1983
338.15 K | 0.177 | – | – | – | 1333
343.15 K | 0.221 | 1359.71 | – | – | 1033
348.15 K | 0.28 | – | – | – | 766.7
353.15 K | 0.353 | 1353.8 | – | – | 616.7
358.15 K | – | – | – | – | 483.3
363.15 K | – | 1347.97 | – | – | 416.7
368.15 K | – | – | – | – | 333.3
373.15 K | – | – | – | – | 283.3

CC(C)C[NH2+]CCCCS(=O)(=O)O.O=S(=O)([O-])O [N-isobutyl-4-sulfobutan-1-aminium hydrogen sulfate]
Conditions | electrical conductivity, [1] [S/m] | mass density, [1] [kg/m3] | refractive index, [2] | surface tension liquid-gas, [1] [mN/m] | viscosity, [1] [mPa·s]
293.15 K | – | 1359.08 | 1.48143 | – | –
298.15 K | 0.593 | – | 1.4803 | 47.15 | 14433
303.15 K | 0.757 | 1353.21 | 1.47918 | 46.79 | 9450
308.15 K | 1.04 | – | 1.47804 | 46.48 | 6033
313.15 K | 1.32 | 1347.39 | 1.47689 | 46.12 | 4267
318.15 K | 1.65 | – | 1.47576 | 45.74 | 2967
323.15 K | 2.16 | 1341.63 | 1.47461 | 45.3 | 2117
328.15 K | 2.53 | – | 1.4734 | 44.93 | 1550
333.15 K | 3.01 | 1335.95 | 1.47212 | – | 1033
338.15 K | 3.67 | – | – | – | 766.7
343.15 K | 4.29 | 1330.29 | – | – | 633.3
348.15 K | 4.96 | – | – | – | 483.3
353.15 K | 5.61 | 1324.66 | – | – | 383.3
358.15 K | – | – | – | – | 316.7
363.15 K | – | 1319.09 | – | – | 266.7
368.15 K | – | – | – | – | 200
373.15 K | – | – | – | – | 166.7
